Assay results as given in ChEMBL document CHEMBL5303573, “Mapping human microbiome drug metabolism by gut bacteria and their genes” (Nature, 2019).

How the values were obtained:
Format in all cases: ADME
Design in all cases: dose 2 uM
Settings in all cases: 2 µM
[1] = target: T1, Nitroreductase-like protein (Bacteroides thetaiotaomicron, UniProt Q8AB93); test: (§1) The drug is tested on Bacteroides thetaiotaomicron strain: VPI-5482 for biotransformation. The drug concentrations were measured before and after a 12-h incubation by liquid-chromatography-coupled mass spectrometry (LC–MS)
T1 sequence (Q8AB93 whole entry): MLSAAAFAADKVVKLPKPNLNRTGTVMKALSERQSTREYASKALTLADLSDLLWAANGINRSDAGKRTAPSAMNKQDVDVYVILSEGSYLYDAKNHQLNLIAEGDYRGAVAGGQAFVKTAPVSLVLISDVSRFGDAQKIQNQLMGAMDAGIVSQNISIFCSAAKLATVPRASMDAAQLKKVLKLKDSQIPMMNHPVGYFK

General stress protein = General stress protein (Bacteroides thetaiotaomicron, UniProt Q8A7U5); test: as §1
Sequence of General stress protein (Q8A7U5 1-138, change not shown): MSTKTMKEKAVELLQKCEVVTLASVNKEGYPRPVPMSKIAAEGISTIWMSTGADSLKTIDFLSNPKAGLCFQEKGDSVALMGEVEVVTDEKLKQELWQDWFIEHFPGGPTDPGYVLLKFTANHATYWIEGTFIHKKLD

[2] = target: T2, Acetyl esterase (Acetylxylosidase) (Bacteroides thetaiotaomicron, UniProt Q8ABF8); test: as §1
T2 sequence (Q8ABF8 whole entry): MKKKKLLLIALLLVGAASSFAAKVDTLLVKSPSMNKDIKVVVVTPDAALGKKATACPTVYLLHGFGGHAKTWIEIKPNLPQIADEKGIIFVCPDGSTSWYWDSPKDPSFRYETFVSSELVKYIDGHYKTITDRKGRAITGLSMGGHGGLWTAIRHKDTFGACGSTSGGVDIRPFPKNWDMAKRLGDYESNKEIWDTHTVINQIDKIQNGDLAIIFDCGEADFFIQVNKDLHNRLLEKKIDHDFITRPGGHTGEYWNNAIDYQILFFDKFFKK

Lipase = target: T3, Lipase (Bacteroides thetaiotaomicron, UniProt Q8A3J3); test: as §1
T3 sequence (Q8A3J3 whole entry): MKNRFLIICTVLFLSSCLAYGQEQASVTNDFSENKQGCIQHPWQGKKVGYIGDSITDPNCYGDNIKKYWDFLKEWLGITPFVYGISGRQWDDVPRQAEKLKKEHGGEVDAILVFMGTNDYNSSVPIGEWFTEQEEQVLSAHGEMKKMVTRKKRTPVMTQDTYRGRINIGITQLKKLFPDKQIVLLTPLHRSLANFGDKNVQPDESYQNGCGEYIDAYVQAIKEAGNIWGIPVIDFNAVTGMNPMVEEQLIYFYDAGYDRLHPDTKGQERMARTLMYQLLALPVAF

Xylanase = target: T4, Xylanase (Bacteroides thetaiotaomicron, UniProt Q8A8H5); test: as §1
T4 sequence (Q8A8H5 whole entry): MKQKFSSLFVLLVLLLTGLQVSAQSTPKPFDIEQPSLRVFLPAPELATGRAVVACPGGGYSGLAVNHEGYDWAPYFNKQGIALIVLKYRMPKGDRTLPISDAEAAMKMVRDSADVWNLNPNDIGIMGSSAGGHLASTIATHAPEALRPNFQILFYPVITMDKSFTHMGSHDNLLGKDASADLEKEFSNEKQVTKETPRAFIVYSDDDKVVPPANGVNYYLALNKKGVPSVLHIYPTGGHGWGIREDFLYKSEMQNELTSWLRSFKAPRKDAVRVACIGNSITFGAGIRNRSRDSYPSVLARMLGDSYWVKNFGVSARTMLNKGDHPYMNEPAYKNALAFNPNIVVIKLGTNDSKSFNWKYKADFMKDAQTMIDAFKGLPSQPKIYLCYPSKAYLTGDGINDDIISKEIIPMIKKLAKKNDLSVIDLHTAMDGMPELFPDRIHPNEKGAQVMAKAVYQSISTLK

[3] = target: T5, Lipolytic enzyme, G-D-S-L family (Bacteroides thetaiotaomicron, UniProt Q8A0E6); test: as §1
T5 sequence (Q8A0E6 whole entry): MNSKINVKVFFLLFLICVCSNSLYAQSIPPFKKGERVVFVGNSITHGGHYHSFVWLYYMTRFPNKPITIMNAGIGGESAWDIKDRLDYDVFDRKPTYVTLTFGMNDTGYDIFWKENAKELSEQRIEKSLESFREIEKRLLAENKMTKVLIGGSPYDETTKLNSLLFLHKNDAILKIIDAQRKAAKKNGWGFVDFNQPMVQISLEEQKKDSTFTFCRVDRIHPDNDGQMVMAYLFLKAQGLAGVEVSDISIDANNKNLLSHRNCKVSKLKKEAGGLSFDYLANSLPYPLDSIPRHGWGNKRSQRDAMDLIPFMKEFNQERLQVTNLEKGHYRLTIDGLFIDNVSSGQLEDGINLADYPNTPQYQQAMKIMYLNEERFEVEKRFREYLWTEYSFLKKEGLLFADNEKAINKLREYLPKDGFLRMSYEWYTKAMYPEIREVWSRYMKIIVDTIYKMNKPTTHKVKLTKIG

Lipoprotein = target: T6, Lipoprotein (Bacteroides thetaiotaomicron, UniProt Q8A343); test: as §1
T6 sequence (Q8A343 whole entry): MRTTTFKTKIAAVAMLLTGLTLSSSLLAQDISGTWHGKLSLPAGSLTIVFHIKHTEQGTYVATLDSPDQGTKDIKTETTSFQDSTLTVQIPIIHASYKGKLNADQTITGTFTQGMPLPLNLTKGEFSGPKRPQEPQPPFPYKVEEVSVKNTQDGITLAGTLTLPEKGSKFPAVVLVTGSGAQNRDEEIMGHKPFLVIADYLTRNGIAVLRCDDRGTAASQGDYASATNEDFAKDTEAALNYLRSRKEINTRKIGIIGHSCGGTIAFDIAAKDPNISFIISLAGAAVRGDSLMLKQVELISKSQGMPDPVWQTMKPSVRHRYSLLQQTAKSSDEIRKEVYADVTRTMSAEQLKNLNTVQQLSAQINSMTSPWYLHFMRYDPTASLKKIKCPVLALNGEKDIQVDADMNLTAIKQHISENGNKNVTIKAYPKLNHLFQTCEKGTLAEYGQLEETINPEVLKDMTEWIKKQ

Regulatory protein = target: T7, Regulatory protein (Bacteroides thetaiotaomicron, UniProt Q8A576); test: as §1
T7 sequence (Q8A576 whole entry): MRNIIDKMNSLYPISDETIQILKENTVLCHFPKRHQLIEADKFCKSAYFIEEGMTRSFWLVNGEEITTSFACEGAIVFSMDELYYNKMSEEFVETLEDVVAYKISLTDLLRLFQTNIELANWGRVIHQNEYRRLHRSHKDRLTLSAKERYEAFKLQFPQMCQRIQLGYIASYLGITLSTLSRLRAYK

Acyltransferase = target: T8, Acyltransferase (Bacteroides thetaiotaomicron, UniProt Q8A575); test: as §1
T8 sequence (Q8A575 whole entry): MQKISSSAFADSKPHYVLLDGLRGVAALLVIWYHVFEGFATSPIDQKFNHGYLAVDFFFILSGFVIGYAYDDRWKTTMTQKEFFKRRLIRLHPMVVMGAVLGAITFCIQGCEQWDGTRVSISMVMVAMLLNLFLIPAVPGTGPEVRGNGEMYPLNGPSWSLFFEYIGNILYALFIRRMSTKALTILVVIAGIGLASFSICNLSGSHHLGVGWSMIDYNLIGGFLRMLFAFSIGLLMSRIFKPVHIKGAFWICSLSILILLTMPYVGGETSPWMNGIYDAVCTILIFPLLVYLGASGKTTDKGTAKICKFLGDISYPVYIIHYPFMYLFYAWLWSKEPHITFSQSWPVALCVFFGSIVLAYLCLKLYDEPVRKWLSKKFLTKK

Bacterial Biotransformation [1]: Compound NOT metabolized
Bacterial Biotransformation (General stress protein): Compound NOT metabolized
Bacterial Biotransformation [2]: Compound NOT metabolized
Bacterial Biotransformation (Lipase): Compound NOT metabolized
Bacterial Biotransformation (Xylanase): Compound NOT metabolized
Bacterial Biotransformation [3]: Compound NOT metabolized
Bacterial Biotransformation (Lipoprotein): Compound NOT metabolized
Bacterial Biotransformation (Regulatory protein): Compound NOT metabolized
Bacterial Biotransformation (Acyltransferase): Compound NOT metabolized
Structure (SMILES): C[C@]12CCC(=O)C=C1[C@@H]1C[C@@H]1[C@H]1[C@@H]3[C@@H]4C[C@@H]4[C@@]4(CCC(=O)O4)[C@@]3(C)CC[C@@H]12 [DROSPIRENONE]
